The test system of test [1] is STING inhibition in human whole blood (IFNα2α production). Put plainly: Human whole blood assay (HWBA): cGAMP-stimulated IFNα2α production. The class given is cell-based. The settings on record: Homo sapiens. As to the method: For the detection of STING inhibition in physiological environment human whole blood was stimulated by the cyclic dinucleotide cGAMP. Pathway activity was monitored by measuring the IFNα2α production.
Assay method: Compounds were delivered as 10 mM DMSO solution and serial diluted and transferred to the 96-well Cell culture Plate (Corning #3595), prefilled with 20 μl OptiMEM (Gibco #11058-021) in each well, using an Echo acoustic dispenser. Typically, 8 concentrations were used with the highest concentration at 10 μM in the final assay volume followed by ~1:5 dilution steps. DMSO concentration was set to 0.1% in the final assay volume. The 96 well assay plate contained 9 test compounds, a reference compound and DMSO in control wells.
Collection of human whole blood from 3 or more healthy donors (male or female, no medication for 7 days, exception contraceptive and thyroxine) as Na-citrate blood (e.g. 3.8% in Monovettes from Sarstedt) is conducted in parallel. Whole blood was kept at room temperature for a maximum of 3 hours after collection until use in the assay.
160 μl of the whole blood samples were transferred to each well of the 96-well assay plates filled with compound/OptiMEM. All assay plates are prepared as duplicates with blood from different donors. Blood plates were kept at room temperature for 60 minutes and continuous shaking with 450 rpm, covered with the lid, but not sealed.
A 10× cGAMP assay solution was diluted from a 2 mM stock solution in 1×HBSS immediately before use at room temperature. 20 μl of the 10× cGAMP/HBSS were added to all compound and all high control wells, whereas HBSS only was added to all low control wells.
After covering assay plates with aera seals and the lid, blood plates were kept at room temperature for 30 minutes and continuous shaking with 450 rpm, followed by an overnight incubation of 22 h at 37° C. in the incubator, without shaking.
For the detection of IFNα-2α in human plasma, the biotinylated capture antibody (Antibody set IFNA2, Meso Scale Diagnostics #B21VH-3, including coating and capture antibody) was diluted 1:17.5 in Diluent 100 (Meso Scale Diagnostics #R50AA-4, according to the manufacturer. U-Plex MSD GOLD 96-well Small Spot Streptavidin SECTOR Plates (Meso Scale Diagnostics #L45SA-5) were coated with 25 μl diluted capture antibody. Coated plates were incubated for 60 min at room temperature under continuous shaking at 700 rpm. MSD IFNα-2α plates were washed three times with 150 μl wash buffer (1×HBSS, 0.05% Tween).
After blocking the plates with 100 μl block solution/well (1×HBSS with 0.2% Tween, 2% BSA) for 60 min at room temperature and continuous shaking at 700 rpm, plates were emptied as dry as possible by dumping just before continuing with the human plasma. Whole Blood assay plates were centrifuged at 1600 rpm for 10 minutes. 25 μl of supernatant was transferred with a pipetting robotics from each whole blood plate to the corresponding IFNα-2α plate. Plates were sealed with microplate seals and kept at room temperature again under continuous shaking at 700 rpm for two hours. Next MSD IFNα-2α plates were washed three times with 150 μl wash buffer (1×HBSS, 0.05% Tween), before adding 25 μl MSD SULFO-TAG IFNα-2α Antibody solution (1:100 diluted in Diluent 3 (Meso Scale Diagnostics #R50AP-2) to each well of the plates. Afterwards plates were sealed with microplate seals and kept at room temperature again under continuous shaking at 700 rpm for two hours. Finally MSD IFNα-2α plates were washed three times with 150 μl wash buffer (1×HBSS, 0.05% Tween). 150 μl 2×Read buffer was added to each well and plates were immediately measured with the MSD Sector S600 Reader using the vendor barcode.
Data evaluation and calculation: For data evaluation and calculation, % control calculation of each well was based on the mean of high (cGAMP stimulated control) and mean of low (unstimulated control) controls by using the following formula: […]

The target in a further test is T1, human STING WT (R232) (Homo sapiens, UniProt Q86WV6, H232R).
T1 construct: purchased Cisbio 64BDSTGPEG
T1 sequence (Q86WV6 138-379 H232R): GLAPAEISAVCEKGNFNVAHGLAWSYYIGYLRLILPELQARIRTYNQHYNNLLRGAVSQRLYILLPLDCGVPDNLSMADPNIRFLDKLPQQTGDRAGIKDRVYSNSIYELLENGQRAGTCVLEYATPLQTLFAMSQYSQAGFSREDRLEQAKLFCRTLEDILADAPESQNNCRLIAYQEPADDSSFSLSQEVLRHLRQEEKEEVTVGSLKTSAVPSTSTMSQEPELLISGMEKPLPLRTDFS
Put plainly: Human STING HTRF binding assay (competitive, Cisbio 64BDSTGPEG). On the procedure:
Binders to human STING WT (R232) were identified using a competitive HTRF assay format (Cisbio 64BDSTGPEG), which uses d2-labeled STING ligand, a 6His (SEQ ID NO: 2) tagged human STING protein, and an anti 6His (SEQ ID NO: 2) Cryptate-labeled antibody. Compounds compete with the STING ligand-d2 and thereby prevents FRET from occurring, which can be measured by an EnVision™ reader (PerkinElmer).
Assay method: Compounds were delivered as 10 mM DMSO solution, serially diluted by an Agilent Bravo Workstation and transferred to the 384 well assay plate (Perkin Elmer #6005359) using a Cybiwell dispenser. Typically, 8 concentrations were used with the highest concentration at 10 μM or 1 μM in the final assay volume followed by ~1:5 dilution steps. DMSO concentration was set to 1% in the final assay volume. The 384 well assay plate contained 20 test compounds and DMSO in column 23 and 24. A cGAMP standard dilution row was prepared according to the manufacturer and transferred to each assay plate. After transfer of compound solution or dilution buffer for negative (high) and positive (low) controls, 5 μl of the human STING protein (cyclic binding domain (residues 138-379) of the WT R232 human version, fused to a 6 His tag (SEQ ID NO: 2) at the Nter part; 1:50 dilution in detection buffer) were dispensed to all wells except of the positive control, which received detection buffer only. Plates were the centrifuged for 20 sec at 1000 rpm. After that, 10 μl of Anti-6His-Cryptate antibody/Sting ligand-d2 mix was added to all wells using a Multidrop combi dispenser, followed by another sec/1000 rpm centrifugation step. After an incubation of the plates for 180 min at room temperature, […] at […] (HTRF ratio) was measured using an Envison Reader (PerkinElmer).
Data evaluation and calculation: For data evaluation and calculation, HTRF ratios were calibrated using the cGAMP standard curve. After that, the measurement of the low control was set as 0% control and the measurement of the high control was set as 100% control. The IC50 values were calculated using the standard 4 parameter logistic regression formula. Calculation: [y=(a−d)/(1+(x/c)^b)+d], a=low value, d=high value; x=conc M; c=IC50 M; b=slope;

Each structure is given as a SMILES string.

As a reminder, the IC50 is the concentration that gives 50% inhibition. A low value points to greater potency in that assay. Regarding `Cn1cc2cc(-c3nc(-c4cccc5nn(C[C@H](O)c6ccc(OCC7CCOCC7)cc6)cc45)c(C4CC4)n3C)c(C3CC3)nc2n1` [Example 68], the concentration for half-maximal inhibition (IC50) in test [1] was 350 nM; on human STING WT (R232), 17.7 nM.

Turning to `Cn1cc2cc(-c3nc(-c4cccc5nn(C[C@H](O)c6ccccc6)cc45)c(C4CC4)n3C)c(C3CC3(F)F)nc2n1` (stereo partly drawn) [Example 110, (1R)-2-(4-{5-cyclopropyl-2-[6-(2,2-difluorocyclopropyl)-2-methyl-2H-pyrazolo[3,4-b]pyridin-5-yl]-1-methyl-1H-imidazol-4-yl}-2H-indazol-2-yl)-1-phenylethan-1-ol], the results for the IC50 (in test [1]; on human STING WT (R232)) were 85 nM and 8.3 nM, respectively.

For `COc1ccc(Cn2cc3cc(-c4nc(-c5cccc6nn(C[C@H](O)c7ccccc7)cc56)c(C5CC5)n4C)c(C4CC4)nc3n2)cc1` [Example 9, (1R)-2-[4-(5-cyclopropyl-2-{6-cyclopropyl-2-[(4-methoxyphenyl)methyl]-2H-pyrazolo[3,4-b]pyridin-5-yl}-1-methyl-1H-imidazol-4-yl)-2H-indazol-2-yl]-1-phenylethan-1-ol], the results for the half-maximal inhibitory concentration (IC50) (in test [1]; at human STING WT (R232)) were 63 nM and 14.1 nM, respectively.

For the compound `Cc1nc2nn(Cc3ncnn3C)cc2cc1-n1nc(-c2cccc3nn(C[C@H](O)c4ccccc4)cc23)c(C(C)C)c1C` [Example 62, (1R)-2-[4-(5-methyl-1-{6-methyl-2-[(1-methyl-1H-1,2,4-triazol-5-yl)methyl]-2H-pyrazolo[3,4-b]pyridin-5-yl}-4-(propan-2-yl)-1H-pyrazol-3-yl)-2H-indazol-2-yl]-1-phenylethan-1-ol], the IC50 in test [1] turned out to be 300 nM; at human STING WT (R232), 19.1 nM.

As for `Cc1c(C(C)C)c(-c2cccc3nn(C[C@H](O)c4ccccc4)cc23)nn1-c1cc2cn(C)nc2nc1C1CCC1` [Example 53, (1R)-2-[4-(1-{6-cyclobutyl-2-methyl-2H-pyrazolo[3,4-b]pyridin-5-yl}-5-methyl-4-(propan-2-yl)-1H-pyrazol-3-yl)-2H-indazol-2-yl]-1-phenylethan-1-ol], the IC50 stood at 190 nM in test [1] and 28.6 nM on human STING WT (R232).

With `Cc1c(C(C)C)c(-c2cccc3nn(C[C@H](O)c4ccccc4)cc23)nn1-c1cc2cn(C)nc2nc1OC(C)C` [Example 23, (1R)-2-(4-{5-methyl-1-[2-methyl-6-(propan-2-yloxy)-2H-pyrazolo[3,4-b]pyridin-5-yl]-4-(propan-2-yl)-1H-pyrazol-3-yl}-2H-indazol-2-yl)-1-phenylethan-1-ol], the IC50 in test [1] stood at 89 nM; on human STING WT (R232) it was 18.8 nM.

Turning to `Cn1c(-c2cc3cn(CCCN4CCCC4=O)nc3nc2C2CC2)nc(-c2cccc3nn(C[C@H](O)c4ccccc4)cc23)c1C1CC1` [Example 28, 1-{3-[6-cyclopropyl-5-(5-cyclopropyl-4-{2-[(2R)-2-hydroxy-2-phenylethyl]-2H-indazol-4-yl}-1-methyl-1H-imidazol-2-yl)-2H-pyrazolo[3,4-b]pyridin-2-yl]propyl}pyrrolidin-2-one], the values for the IC50 (in test [1]; at human STING WT (R232)) were 110 nM and 8.4 nM, respectively.

In the case of `Cc1nc2nn(CCCO)cc2cc1-n1nc(-c2cccc3nn(C[C@H](O)c4ccccc4)cc23)c(C(C)C)c1C` [Example 32, 3-[5-(3-{2-[(2R)-2-hydroxy-2-phenylethyl]-2H-indazol-4-yl}-5-methyl-4-(propan-2-yl)-1H-pyrazol-1-yl)-6-methyl-2H-pyrazolo[3,4-b]pyridin-2-yl]propan-1-ol], the IC50 stood at 110 nM in test [1] and 8.6 nM on human STING WT (R232).

Consider `CC(C)c1nc2nn(C)cc2cc1-c1nc(-c2cccc3nn(C[S@@+]([O-])c4ccccc4)cc23)c(C2CC2)n1C` [Example 22, 2-{[(S)-benzenesulfinyl]methyl}-4-{5-cyclopropyl-1-methyl-2-[2-methyl-6-(propan-2-yl)-2H-pyrazolo[3,4-b]pyridin-5-yl]-1H-imidazol-4-yl}-2H-indazole], for which the half-maximal inhibitory concentration (IC50) came out at 86 nM in test [1] and 20 nM on human STING WT (R232).

`Cc1nc2nn(CCO)cc2cc1-n1nc(-c2cccc3nn(C[C@H](O)c4ccccc4)cc23)c(C(C)C)c1C` [Example 37, (1R)-2-(4-{1-[2-(2-hydroxyethyl)-6-methyl-2H-pyrazolo[3,4-b]pyridin-5-yl]-5-methyl-4-(propan-2-yl)-1H-pyrazol-3-yl}-2H-indazol-2-yl)-1-phenylethan-1-ol]: the IC50 amounted to 130 nM in test [1] and 5.5 nM on human STING WT (R232).

Regarding `CSc1nc2nn(C)cc2cc1-n1nc(-c2cccc3nn(C[C@H](O)c4ccccc4)cc23)c(C(C)C)c1C` [Example 20, (1R)-2-(4-{5-methyl-1-[2-methyl-6-(methylsulfanyl)-2H-pyrazolo[3,4-b]pyridin-5-yl]-4-(propan-2-yl)-1H-pyrazol-3-yl}-2H-indazol-2-yl)-1-phenylethan-1-ol], the IC50 is 84 nM in test [1] and 17.4 nM on human STING WT (R232).

Consider `Cc1nc2nn(C)cc2cc1-n1nc(-c2cccc3nn(C[C@H](OCCO)c4ccccc4)cc23)c(C(C)C)c1C` [Example 8, 2-[(1R)-2-[4-(1-{2,6-dimethyl-2H-pyrazolo[3,4-b]pyridin-5-yl}-5-methyl-4-(propan-2-yl)-1H-pyrazol-3-yl)-2H-indazol-2-yl]-1-phenylethoxy]ethan-1-ol], for which the IC50 in test [1] worked out at 62 nM; at human STING WT (R232), 14.6 nM.

As for `Cn1c(-c2cc3cn(CCC#N)nc3nc2C2CC2)nc(-c2cccc3nn(C[C@H](O)c4ccccc4)cc23)c1C1CC1` [Example 104, 3-[6-cyclopropyl-5-(5-cyclopropyl-4-{2-[(2R)-2-hydroxy-2-phenylethyl]-2H-indazol-4-yl}-1-methyl-1H-imidazol-2-yl)-2H-pyrazolo[3,4-b]pyridin-2-yl]propanenitrile], the concentration for half-maximal inhibition (IC50) in test [1] amounted to 49 nM; at human STING WT (R232) it was 2 nM.

Regarding `Cc1nc2nn(CCN3CCOCC3)cc2cc1-n1nc(-c2cccc3nn(C[C@H](O)c4ccccc4)cc23)c(C(C)C)c1C` [Example 1, (1R)-2-[4-(5-methyl-1-{6-methyl-2-[2-(morpholin-4-yl)ethyl]-2H-pyrazolo[3,4-b]pyridin-5-yl}-4-(propan-2-yl)-1H-pyrazol-3-yl)-2H-indazol-2-yl]-1-phenylethan-1-ol], the results for the IC50 (in test [1]; on human STING WT (R232)) were 73 nM and 12.1 nM, respectively.

These data come from patent US20260265244A1, “HETEROCYCLIC COMPOUNDS AS STING ANTAGONISTS” (Boehringer Ingelheim International GmbH, priority 2022, published 2026).
